Results from ChEMBL document CHEMBL3044631, “Synthesis of 2-[4,5-dimethyl-1-(phenylamino)-1H-imidazol-2-ylthio]-N-(thiazole-2-yl)acetamide derivatives and their anticancer activities” (2013).

How the values were obtained:
Type in all cases: functional
HOP-62 = assay: Anticancer activity against Homo sapiens (human) HOP62 cells after 48 hr by SRB assay; conditions: HOP-62, 48 h
DU-145 = assay: Anticancer activity against Homo sapiens (human) DU145 cells after 48 hr by SRB assay; conditions: DU-145, 48 h
786-0 = assay: Anticancer activity against Homo sapiens (human) 786-0 cells after 48 hr by SRB assay; conditions: 786-0, 48 h
UO-31 = assay: Anticancer activity against Homo sapiens (human) UO31 cells after 48 hr by SRB assay; conditions: UO-31, 48 h
EKVX = assay: Anticancer activity against Homo sapiens (human) EKVX cells after 48 hr by SRB assay
HCT-15 = assay: Anticancer activity against Homo sapiens (human) HCT15 cells after 48 hr by SRB assay; conditions: HCT-15, 48 h
Malme-3M = assay: Anticancer activity against Homo sapiens (human) MALME-3M cells after 48 hr by SRB assay
TK-10 = assay: Anticancer activity against Homo sapiens (human) TK10 cells after 48 hr by SRB assay; conditions: TK-10, 48 h
SK-OV-3 = assay: Anticancer activity against Homo sapiens (human) SKOV3 cells after 48 hr by SRB assay; conditions: SK-OV-3, 48 h
NCI-H23 = assay: Anticancer activity against Homo sapiens (human) NCI-H23 cells after 48 hr by SRB assay; conditions: NCI-H23, 48 h
SK-MEL-2 = assay: Anticancer activity against Homo sapiens (human) SK-MEL-2 cells after 48 hr by SRB assay; conditions: SK-MEL-2, 48 h
MDA-MB-468 = assay: Anticancer activity against Homo sapiens (human) MDA-MB-468 cells after 48 hr by SRB assay; conditions: MDA-MB-468, 48 h
Hs-578T = assay: Anticancer activity against Homo sapiens (human) Hs 578T cells after 48 hr by SRB assay
BT-549 = assay: Anticancer activity against Homo sapiens (human) BT549 cells after 48 hr by SRB assay; conditions: BT-549, 48 h
IGROV-1 = assay: Anticancer activity against Homo sapiens (human) IGROV1 cells after 48 hr by SRB assay; conditions: IGROV-1, 48 h
UACC-257 = assay: Anticancer activity against Homo sapiens (human) UACC257 cells after 48 hr by SRB assay; conditions: UACC-257, 48 h
MDA-MB-231 = assay: Anticancer activity against Homo sapiens (human) MDA-MB-231/ATCC cells after 48 hr by SRB assay; conditions: MDA-MB-231, 48 h
COLO 205 = assay: Anticancer activity against Homo sapiens (human) COLO205 cells after 48 hr by SRB assay; conditions: COLO 205, 48 h
A498 = assay: Anticancer activity against Homo sapiens (human) A498 cells after 48 hr by SRB assay; conditions: A498, 48 h
HT-29 = assay: Anticancer activity against Homo sapiens (human) HT-29 cells after 48 hr by SRB assay; conditions: HT-29, 48 h
HCT-116 = assay: Anticancer activity against Homo sapiens (human) HCT116 cells after 48 hr by SRB assay; conditions: HCT-116, 48 h
LOX IMVI = assay: Anticancer activity against Homo sapiens (human) LOXIMVI cells after 48 hr by SRB assay
NCI-H522 = assay: Anticancer activity against Homo sapiens (human) NCI-H522 cells after 48 hr by SRB assay; conditions: NCI-H522, 48 h
NCI-H322M = assay: Anticancer activity against Homo sapiens (human) NCI-H322M cells after 48 hr by SRB assay
OVCAR-8 = assay: Anticancer activity against Homo sapiens (human) OVCAR8 cells after 48 hr by SRB assay; conditions: OVCAR-8, 48 h
A549 = assay: Anticancer activity against Homo sapiens (human) A549/ATCC cells after 48 hr by SRB assay; conditions: A549, 48 h
ACHN = assay: Anticancer activity against Homo sapiens (human) ACHN cells after 48 hr by SRB assay
MOLT-4 = assay: Anticancer activity against Homo sapiens (human) MOLT4 cells after 48 hr by SRB assay; conditions: MOLT-4, 48 h
NCI-H460 = assay: Anticancer activity against Homo sapiens (human) NCI-H460 cells after 48 hr by SRB assay; conditions: NCI-H460, 48 h
K562 = assay: Anticancer activity against Homo sapiens (human) K562 cells after 48 hr by SRB assay; conditions: K562, 48 h
SK-MEL-5 = assay: Anticancer activity against Homo sapiens (human) SK-MEL-5 cells after 48 hr by SRB assay; conditions: SK-MEL-5, 48 h
[1] = read-out: LC50 (the source's name)

For `COc1ccc(Nn2c(SCC(=O)Nc3nc(-c4ccc(Cl)cc4)cs3)nc(C)c2C)cc1`, the LC50 (HOP-62) was greater than 100 µM, the GI50 (DU-145) was 4.06 µM and the LC50 (concentration killing 50% of cells) (DU-145) was greater than 100 µM. The TGI (DU-145) was greater than 100 µM, the GI50 (786-0) was 3.46 µM and the LC50 (lethal concentration 50) (786-0) was greater than 100 µM. It also gave a TGI (786-0) of 18.2 µM, a GI50 (UO-31) of 2.62 µM and a TGI (UO-31) greater than 100 µM. It also gave a CC50 (UO-31; [1]) greater than 100 µM, a GI50 (EKVX) of 1.92 µM and a TGI (EKVX) greater than 100 µM. The CC50 (EKVX; [1]) was greater than 100 µM, the GI50 (HCT-15) was 4.79 µM and the TGI (HCT-15) was greater than 100 µM. For the same compound, the CC50 (HCT-15; [1]) was greater than 100 µM, the GI50 (Malme-3M) was 2.9 µM and the TGI (Malme-3M) was greater than 100 µM. For the same compound, the CC50 (Malme-3M; [1]) was greater than 100 µM, the GI50 (TK-10) was 14.8 µM and the LC50 (50% lethal concentration) (TK-10) was greater than 100 µM. The TGI (TK-10) was 80.9 µM, the GI50 (SK-OV-3) was 4.24 µM and the LC50 (50% lethal concentration) (SK-OV-3) was greater than 100 µM. For the same compound, the TGI (SK-OV-3) was greater than 100 µM, the GI50 (NCI-H23) was 1.53 µM and the TGI (NCI-H23) was greater than 100 µM. The CC50 (NCI-H23; [1]) was greater than 100 µM, the GI50 (SK-MEL-2) was 15.7 µM and the LC50 (concentration killing 50% of cells) (SK-MEL-2) was greater than 100 µM. For the same compound, the TGI (SK-MEL-2) was 66.8 µM, the GI50 (MDA-MB-468) was 0.57 µM and the LC50 (MDA-MB-468) was greater than 100 µM. It also gave a TGI (MDA-MB-468) of 7.73 µM, a GI50 (Hs-578T) of 11.8 µM and a TGI (Hs-578T) greater than 100 µM. For the same compound, the CC50 (Hs-578T; [1]) was greater than 100 µM, the GI50 (BT-549) was 6.46 µM and the LC50 (BT-549) was greater than 100 µM. It also gave a TGI (BT-549) of 82 µM, a GI50 (IGROV-1) of 5.67 µM and an LC50 (concentration killing 50% of cells) (IGROV-1) greater than 100 µM. The TGI (IGROV-1) was greater than 100 µM, the GI50 (UACC-257) was 2.97 µM and the LC50 (UACC-257) was greater than 100 µM. It also gave a TGI (UACC-257) of 41.1 µM, a GI50 (MDA-MB-231) of 8.37 µM and a TGI (MDA-MB-231) greater than 100 µM. It also gave a CC50 (MDA-MB-231; [1]) greater than 100 µM, a GI50 (COLO 205) of 1.94 µM and a TGI (COLO 205) of 3.55 µM. It also gave a CC50 (COLO 205; [1]) of 6.51 µM, a GI50 (A498) of 2.22 µM and an LC50 (A498) greater than 100 µM. For the same compound, the TGI (A498) was 56.5 µM, the GI50 (HT-29) was 4.61 µM and the LC50 (HT-29) was greater than 100 µM. It also gave a TGI (HT-29) of 50.4 µM, a GI50 (HCT-116) of 2.12 µM and an LC50 (HCT-116) greater than 100 µM. The TGI (HCT-116) was 14.1 µM, the GI50 (LOX IMVI) was 3.02 µM and the LC50 (50% lethal concentration) (LOX IMVI) was greater than 100 µM. It also gave a TGI (LOX IMVI) of 44.2 µM, a GI50 (NCI-H522) of 5.05 µM and an LC50 (50% lethal concentration) (NCI-H522) greater than 100 µM. It also gave a TGI (NCI-H522) greater than 100 µM, a GI50 (NCI-H322M) greater than 100 µM and a TGI (NCI-H322M) greater than 100 µM. It also gave a CC50 (NCI-H322M; [1]) greater than 100 µM, a GI50 (OVCAR-8) of 4.82 µM and a TGI (OVCAR-8) greater than 100 µM. It also gave a CC50 (OVCAR-8; [1]) greater than 100 µM, a GI50 (A549) of 3.32 µM and an LC50 (A549) greater than 100 µM. For the same compound, the TGI (A549) was greater than 100 µM, the GI50 (ACHN) was 2.27 µM and the LC50 (concentration killing 50% of cells) (ACHN) was greater than 100 µM. The TGI (ACHN) was 8.76 µM, the GI50 (MOLT-4) was 2.54 µM and the LC50 (50% lethal concentration) (MOLT-4) was greater than 100 µM. The TGI (MOLT-4) was greater than 100 µM, the GI50 (NCI-H460) was 2.69 µM and the LC50 (NCI-H460) was greater than 100 µM. The TGI (NCI-H460) was 10.6 µM, the GI50 (K562) was 1.58 µM and the TGI (K562) was greater than 100 µM. The CC50 (K562; [1]) was greater than 100 µM, the GI50 (SK-MEL-5) was 1.41 µM and the LC50 (concentration killing 50% of cells) (SK-MEL-5) was 7.96 µM. For the same compound, the TGI (SK-MEL-5) was 3.35 µM.
